Here are results for three compounds from patent US12528759B2, “Crystalline forms of bempedoic acid” (SYNTHON B.V., priority 2019, dated 2026).

Series [1] is described as follows: Flowability and stickiness of the solid form. It is filed as physicochemical.
A further series is described as follows: Solubility. Format: physicochemical.
Series [2] in a line: Water content of the crystalline form under extreme high humidity. It is filed as physicochemical.
Series [3] is described as follows: Stability of the crystalline form when dried in oven. It is filed as physicochemical. To be noted: e.g. 40° C.
For series [4] the following is noted: prior-art solid form of WO2018218147; cited from earlier work.

Read-outs that look alike come from different tables or passages of the source.

`CC(C)(CCCCCC(O)CCCCCC(C)(C)C(=O)O)C(=O)O` [Form A, 8-Hydroxy-2,2,14,14-tetramethylpentadecanedioic acid]: in series [1], the flowability result is listed as “good” and the stickiness entry was “not sticky”.

`CC(C)(CCCCCC(O)CCCCCC(C)(C)C(=O)O)C(=O)O` [Form B, 8-Hydroxy-2,2,14,14-tetramethylpentadecanedioic acid]: the solubility result in the series “Solubility” is “good”. Further, the “water content change when subjected to extreme high level of humidity” value in series [2] (70-90% relative humidity) is “did not change”. Moreover, in series [2] (humidity above 70% relative humidity), the “water absorption or loss when subjected to extreme conditions” value is “does not absorb or lose water”. The “stability when dried in oven” value in series [3] was “stable”.

On to `CC(C)(CCCCCC(O)CCCCCC(C)(C)C(=O)O)C(=O)O` [solid form of Bempedoic acid, 8-Hydroxy-2,2,14,14-tetramethylpentadecanedioic acid], for which, in series [4], the flow characteristics entry is on record as “poor” and the stickiness entry is “very sticky”.
